# Measurements: patent publication US4748116A, “Peptide substrates for determination of protease activity” (KabiVitrum AB, priority 1980, dated 1988)
# Structures can show the parent of a compound that is named as a salt.
# Settings: pH 8.3
smiles,measurement,value
"CC(C)C[C@H](NC(=O)[C@@H](NC(=O)OC(C)(C)C)C(C)C)C(=O)N[C@@H](CCCCN)C(=O)Nc1ccc2c(=O)[nH][nH]c(=O)c2c1 [XXI, Boc--Val--Leu--Lys--Isl.HCl]",stability of substrate,very stable
